Reference: US8013018B2, “Aminoindane derivative or salt thereof” (Astellas Pharma Inc., priority 2006, dated 2011)
Structures can show the parent of a compound that is named as a salt.

Target: NMDA receptor
Assay: [3H] MK-801 binding test on rat brain membrane specimen
Conditions: read-out: Ki (NMDA receptor affinity)
Procedure: 1) Preparation of Specimens of Rat Meninges:
The whole brain was taken out from 30 10-week SD rats (Nippon SLC), and the cerebellum was removed from them. A 0.32 M sucrose solution was added to the part containing the cerebrum, cut in a mixer, and homogenized with a Teflon™ (trademark) homogenizer. This was centrifuged at 2800 rpm and 4° C. for 15 minutes, and the resulting supernatant was again centrifuged at 15000 g and 4° C. for 20 minutes. The pellets were suspended in 50 mM Tris-HCL (pH 7.5) containing 0.08% Triton X-100, and kept statically on ice for 30 minutes, then centrifuged at 15000 g and 4° C. for 20 minutes. The pellets were suspended in 50 mM Tris-HCl (pH 7.5) added thereto, and centrifuged at 15000 g and 4° C. for 20 minutes. 50 mM Tris-HCl (pH 7.5) was again added to the pellets, and centrifuged in the same manner as before. The pellets were suspended in 20 ml of 50 mM Tris-HCl (pH 7.5) added thereto, and homogenized with the Teflon™ (trademark) homogenizer. The membrane specimen was divided into small tubes and stored in a deep freezer (−80° C.). Before use, this was washed twice with 5 mM Tris-HCl (pH 7.5) of five times that of the membrane specimen. Its concentration was controlled at 1 mg protein/ml with 5 mM Tris-HCl (pH 7.5) added to it, and this was used for assay.
2) [^3H] MK-801 Binding Assay:
50 μl of the rat membrane specimen (1 mg protein/ml) was added to a solution of a test compound dissolved in 1 μl of DMSO.

Structure (SMILES) | Ki [nM]
Cc1ccc2c(c1)C(C)(N)C(C)(C)C2 (stereo not drawn) [Example 36, 1,2,2,6-Tetramethylindan-1-amine hydrochloride] | 400
CC1(C)Cc2ccc(Br)cc2C1(C)N (stereo not drawn) [Example 42, 6-Bromo-1,2,2,-trimethylindan-1-amine hydrochloride] | 300
CCC1(CC)Cc2ccccc2C1(N)c1ccccc1 (stereo not drawn) [Example 2] | 400
CC1(C)Cc2ccc(F)cc2C1(C)N (stereo not drawn) [Example 41, 6-Fluoro-1,2,2-trimethylindan-1-amine hydrochloride] | 800
CNC1(c2ccccc2)c2ccccc2CC1(C)C (stereo not drawn) [Example 10, N,2,2-trimethyl-1-phenylindan-1-amine hydrochloride] | 400
CC1(C)Cc2ccc(C#N)cc2C1(C)N (stereo not drawn) [Example 44, 6-Cyano-1,2,2-trimethylindan-1-amine hydrochloride] | 600
CCCCC1(N)c2ccccc2CC1(C)C (stereo not drawn) [Example 61] | 500
CC1(C)Cc2cccc(F)c2C1(C)N (stereo not drawn) [Example 48, 7 Fluoro-1,2,2-trimethylindan-1-amine hydrochloride] | 600
CC1(C)Cc2ccccc2C1(N)c1cccc(O)c1 (stereo not drawn) [Example 21, 1-(3-Hydroxyphenyl)-2,2-dimethylindan-1-amine] | 100
CCC1(N)c2cccc(C)c2CC1(C)C (stereo not drawn) [Example 59] | 900
CC1(C)Cc2ccccc2C1(C)N (stereo not drawn) [Example 23, 1,2,2-Trimethylindan-1-amine hydrochloride] | 900
CC1(C)Cc2ccc(C(F)(F)F)cc2C1(C)N (stereo not drawn) [Example 43, 6-Trifluoromethyl-1,2,2-trimethylindan-1-amine hydrochloride] | 300
CC1(C)Cc2ccccc2C1(N)c1ccc(F)cc1 (stereo not drawn) [Example 17, 1-(4-Fluorophenyl)-2,2-dimethylindan-1-amine monofumarate] | 800
COc1ccccc1C1(N)c2ccccc2CC1(C)C (stereo not drawn) [Example 18, 1-(2-Methoxyphenyl)-2,2-dimethylindan-1-amine hydrochloride] | 300
COc1ccc2c(c1)C(C)(N)C(C)(C)C2 (stereo not drawn) [Example 38, 6-Methoxy-1,2,2-trimethylindan-1-amine hydrochloride] | 300
